Each structure is given as a SMILES string.

Data set [1] deals with BT474 cell line and FRDA lymphocytes. The data set can be described thus: Cytotoxicity assay (WST-1). It counts as cell-based, human. Particulars: 48 h, varying concentrations. How it is done:
FIG. 5. Effect of compound 40 and geldanamycin on cell viability was compared to vehicle (DMSO) after treatment with varying concentrations for 48 h in BT474 cell line and FRDA lymphocytes, respectively. Each measurement is an average of three independent experiments run in quartet.
[…] geldanamycin were tested for their cytotoxicity in human breast cancer cell line BT474 and FRDA lymphocytes using the vital mitochondrial function assay WST-1 Kit (Roche Diagnostics). BT474 cells (2000 cell/well) and FRDA lymphocytes (5000 cell/well) (100 μl) were seeded in 96-well plates and incubated for 48 h. Compound 40 or geldanamycin at varying concentrations were added and the plates were returned to the incubator for 48 h. Cell viability was determined using a WST-1 Kit (Roche Diagnostics) following the manufacturer's instructions. WST-1 reagent (10 μL) was added to each well, containing 200 μL media and further incubation for 2 h (BT474) and 4 h (FRDA lymphocytes). Color intensity was measured at 450 nm using a SpectraMax M5 microplate reader (Molecular Devices, Sunnyvale, Calif., USA). Results are expressed as percentage of viable cells relative to untreated control after subtracting background. Data are expressed as means±S.E.M. (n=3).
(Formazan colour is commonly taken as a measure of viable cells.)

Data set [2] in a line: Lipid peroxidation induced by AAPH peroxyl radicals in phospholipid liposomes (C11-BODIPY581/591 fluorescence). Particulars: 10 mM AAPH, phosphate buffer, 40° C.; compared with tocopherol. As for the experimental part: FIG. 4. Effect of nitrogen-containing 3-alkyl-1,4-benzoquinone derivatives on lipid peroxidation induced by peroxyl radicals generated from thermal decomposition of AAPH in phospholipid liposomes in phosphate buffer at 40° C. […] Relative fluorescence units are normalized to 100% intensity.
Several methods for assaying lipid peroxidation in vitro have been developed (Kuypers et al. (1987) Biochim Biophys Acta. 25, 266-274; Pap et al. (1999) FEBS Lett. 453, 278-282; Drummen et al. (2002) Free RadicBiol Med. 33, 473-490). Almost all of these methods are based on inhibition of free radical-induced oxidation reactions. A widely used fluorescence assay for lipid peroxidation uses lipid soluble cis-parinaric acid as a probe. cis-parinaric acid loses its fluorescence (λexc/em: 320/432 nm) upon interaction with peroxyl radicals and retains its fluorescence in the presence of radical quenchers. cis-parinaric acid is, however, air sensitive, photolabile and absorbs light in the UV region of the spectrum (at ˜320 nm). […] C11-BODIPY^581/591 (Molecular Probes, Eugene, Oreg., USA) stock solution concentrations were determined by measuring the absorption of C11-BODIPY^581/591 at 582 nm using a molar extinction coefficient of 140,000 mol^−1 cm^−1 (R. P. Haugland, (1999) Handbook of Fluorescent Probes and Research Chemicals, Molecular Probes, Inc., Eugene, Oreg.). […]

Take `COC1=C2CCCCCCCCCCCCCCCNC(=CC1=O)C2=O` [Compound 40]: the “Cytotoxicity (in words)” value in data set [1] was “no cytotoxicity”. `CCCCCCCCCCCCCC1=C(OC)C(=O)C=C(NCCCC(=O)OCCCCCC)C1=O` [Compound 18, Hexyl 4-(4-methoxy-3,6-dioxo-5-tridecylcyclohexa-1,4-dienylamino)butanoate]: the “Protection against lipid peroxidation in liposomes (in words)” value in data set [2] is given as “significant protection against lipid peroxidation”.

Values taken from patent US9957214B2, “Multifunctional radical quenchers” (ARIZONA BOARD OF REGENTS ON BEHALF OF ARIZONA STATE …, priority 2012, dated 2018).
